How the values were obtained:
[1] = test system: CYPSE (Flatsedge); assay: Preemergence weed control under flooded paddy conditions; format: in vivo, Cyperus serotinus; conditions: rated 3-4 weeks after treatment
In short: (§1)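 Herbicidal effect is scored visually on a 0-9 scale against an untreated control, three to four weeks after compounds are pipetted into the flood water (1.5 to 3 cm deep) over seeds planted in silt loam at 0.5 cm depth. Rates: about 0.0313 to 0.500 kg/ha.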

[2] = test system: ZEAMX (Corn, Field); assay: Postemergence herbicidal evaluation; format: in vivo, Zea mays; conditions: postemergence
In short: (§2)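 First, seedlings were raised for around two weeks. Next, test material in 50/50 acetone/water containing 0.5% TWEEN 20 was sprayed through a nozzle at 40 psi, equivalent to about 0.0156–0.500 kg/ha. Finally, after 4–5 weeks in the greenhouse, plants were rated 0–9.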

[3] = test system: SETVI (Foxtail, Green); assay: Preemergence herbicidal evaluation; format: in vivo, Setaria viridis; conditions: rated 4-5 weeks after treatment, rating scale 0-9
In short: (§3)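 Greenhouse preemergence test: seed-soil mix sown on ~1 inch soil; aqueous acetone spray at equivalent of ~0.0156–0.500 kg/ha; greenhouse-held and watered; scored 0–9 visually at 4–5 weeks.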

[4] = test system: CHEAL (Lambsquarters, Common); assay: Postemergence herbicidal evaluation; format: in vivo, Chenopodium album; conditions: postemergence
In short: as §2

[5] = test system: GALAP (Galium); assay: Postemergence herbicidal evaluation; format: in vivo, Galium aparine; conditions: postemergence
In short: as §2

[6] = test system: ORYSAT (Rice, Tebonnet); assay: Postemergence herbicidal evaluation; format: in vivo, Oryza sativa, (L.) Tebonnet; conditions: postemergence
In short: as §2

[7] = test system: MOOVA (Monochoria); assay: Preemergence weed control under flooded paddy conditions; format: in vivo, Monochoria vaginalis; conditions: rated 3-4 weeks after treatment
In short: as §1

[8] = test system: ORYSAT (Rice, Tebonnet); assay: Preemergence herbicidal evaluation; format: in vivo, Oryza sativa, (L.) Tebonnet; conditions: rated 4-5 weeks after treatment, rating scale 0-9
In short: as §3

[9] = test system: GLXMAW (Soybean, Williams); assay: Preemergence herbicidal evaluation; format: in vivo, Glycine max, (L.) Merr. cv Williams; conditions: rated 4-5 weeks after treatment, rating scale 0-9
In short: as §3

[10] = test system: AMBEL (Ragweed, Common); assay: Preemergence herbicidal evaluation; format: in vivo, Ambrosia artemisifolia; conditions: rated 4-5 weeks after treatment, rating scale 0-9
In short: as §3

[11] = test system: CASOB (Sicklepod); assay: Postemergence herbicidal evaluation; format: in vivo, Cassia obtusifolia; conditions: postemergence
In short: as §2

## COc1cccc(CN2C(=O)CSC2=Nc2cc(-n3c(=O)cc(C(F)(F)F)n(C)c3=O)c(F)cc2Cl)c1 [Compound 137, 3-{4-Chloro-2-fluoro-5-{[3-(m-methoxybenzyl)-4-oxo-2-thiazolidinylidene]amino}phenyl}-1-methyl-6-(trifluoromethyl)-2,4(1H,3H)-pyrimidinedione]
[1]; 0.0313 kg/ha
  herbicidal effect rating, CYPSE: 0.0
[1]; 0.0625 kg/ha
  herbicidal effect rating, CYPSE: 0.0
[1]; 0.1250 kg/ha
  herbicidal effect rating, CYPSE: 0.0
[1]; 0.2500 kg/ha
  herbicidal effect rating, CYPSE: 0.0
[2]; rate 0.0156 kg/ha
  herbicidal rating ZEAMX: 4.0
[2]; rate 0.0313 kg/ha
  herbicidal rating ZEAMX: 4.0
[2]; rate 0.0625 kg/ha
  herbicidal rating ZEAMX: 4.0
[3]; rate 0.0625 kg/ha
  Preemergence herbicidal rating SETVI: 0.0
[3]; rate 0.1250 kg/ha
  Preemergence herbicidal rating SETVI: 0.0
[3]; rate 0.2500 kg/ha
  Preemergence herbicidal rating SETVI: 2.0
[4]; rate 0.0156 kg/ha
  herbicidal rating CHEAL: 6.0
[4]; rate 0.0313 kg/ha
  herbicidal rating CHEAL: 9.0
[4]; rate 0.0625 kg/ha
  herbicidal rating CHEAL: 9.0
[5]; rate 0.0156 kg/ha
  herbicidal rating GALAP: 1.0
[5]; rate 0.0313 kg/ha
  herbicidal rating GALAP: 1.0
[5]; rate 0.0625 kg/ha
  herbicidal rating GALAP: 3.0
[6]; rate 0.0156 kg/ha
  herbicidal rating ORYSAT: 3.0
[6]; rate 0.0313 kg/ha
  herbicidal rating ORYSAT: 3.0
[6]; rate 0.0625 kg/ha
  herbicidal rating ORYSAT: 3.5
[7]; 0.0313 kg/ha
  herbicidal effect rating, MOOVA: 4.0
[7]; 0.0625 kg/ha
  herbicidal effect rating, MOOVA: 5.0
[7]; 0.1250 kg/ha
  herbicidal effect rating, MOOVA: 5.0
[7]; 0.2500 kg/ha
  herbicidal effect rating, MOOVA: 8.0
[8]; rate 0.0625 kg/ha
  Preemergence herbicidal rating ORYSAT: 0.0
[8]; rate 0.1250 kg/ha
  Preemergence herbicidal rating ORYSAT: 0.0
[8]; rate 0.2500 kg/ha
  Preemergence herbicidal rating ORYSAT: 0.0
[9]; rate 0.0625 kg/ha
  Preemergence herbicidal rating GLXMAW: 0.0
[9]; rate 0.1250 kg/ha
  Preemergence herbicidal rating GLXMAW: 0.0
[9]; rate 0.2500 kg/ha
  Preemergence herbicidal rating GLXMAW: 1.0
[10]; rate 0.0625 kg/ha
  Preemergence herbicidal rating AMBEL: 0.0
[10]; rate 0.1250 kg/ha
  Preemergence herbicidal rating AMBEL: 0.0
[10]; rate 0.2500 kg/ha
  Preemergence herbicidal rating AMBEL: 7.0
[11]; rate 0.0156 kg/ha
  herbicidal rating CASOB: 1.0
[11]; rate 0.0313 kg/ha
  herbicidal rating CASOB: 1.0
[11]; rate 0.0625 kg/ha
  herbicidal rating CASOB: 4.0

## COc1ccc(CN2C(=O)CSC2=Nc2cc(-n3c(=O)cc(C(F)(F)F)n(C)c3=O)c(F)cc2Cl)c(OC)c1 [Compound 139, 3-{4-Chloro-5-{[3-(2,4-dimethoxybenzyl)-4-oxo-2-thiazolidinylidene]amino}-2-fluorophenyl}-1-methyl-6-(trifluoromethyl)-2,4(1H,3H)-pyrimidinedione]
[1]; 0.1250 kg/ha
  herbicidal effect rating, CYPSE: 0.0
[1]; 0.2500 kg/ha
  herbicidal effect rating, CYPSE: 0.0
[2]; rate 0.0156 kg/ha
  herbicidal rating ZEAMX: 4.5
[2]; rate 0.0313 kg/ha
  herbicidal rating ZEAMX: 4.5
[2]; rate 0.0625 kg/ha
  herbicidal rating ZEAMX: 5.0
[3]; rate 0.0156 kg/ha
  Preemergence herbicidal rating SETVI: 0.0
[3]; rate 0.0313 kg/ha
  Preemergence herbicidal rating SETVI: 0.0
[3]; rate 0.0625 kg/ha
  Preemergence herbicidal rating SETVI: 0.0
[3]; rate 0.1250 kg/ha
  Preemergence herbicidal rating SETVI: 1.0
[3]; rate 0.2500 kg/ha
  Preemergence herbicidal rating SETVI: 7.0
[4]; rate 0.0156 kg/ha
  herbicidal rating CHEAL: 9.0
[4]; rate 0.0313 kg/ha
  herbicidal rating CHEAL: 9.0
[4]; rate 0.0625 kg/ha
  herbicidal rating CHEAL: 9.0
[5]; rate 0.0156 kg/ha
  herbicidal rating GALAP: 1.0
[5]; rate 0.0313 kg/ha
  herbicidal rating GALAP: 3.0
[5]; rate 0.0625 kg/ha
  herbicidal rating GALAP: 4.0
[6]; rate 0.0156 kg/ha
  herbicidal rating ORYSAT: 2.0
[6]; rate 0.0313 kg/ha
  herbicidal rating ORYSAT: 3.0
[6]; rate 0.0625 kg/ha
  herbicidal rating ORYSAT: 3.5
[7]; 0.0313 kg/ha
  herbicidal effect rating, MOOVA: 4.0
[7]; 0.0625 kg/ha
  herbicidal effect rating, MOOVA: 5.0
[7]; 0.1250 kg/ha
  herbicidal effect rating, MOOVA: 7.0
[7]; 0.2500 kg/ha
  herbicidal effect rating, MOOVA: 7.0
[8]; rate 0.0156 kg/ha
  Preemergence herbicidal rating ORYSAT: 0.0
[8]; rate 0.0313 kg/ha
  Preemergence herbicidal rating ORYSAT: 0.0
[8]; rate 0.0625 kg/ha
  Preemergence herbicidal rating ORYSAT: 0.0
[8]; rate 0.1250 kg/ha
  Preemergence herbicidal rating ORYSAT: 1.0
[8]; rate 0.2500 kg/ha
  Preemergence herbicidal rating ORYSAT: 2.0
[9]; rate 0.0156 kg/ha
  Preemergence herbicidal rating GLXMAW: 0.0
[9]; rate 0.0313 kg/ha
  Preemergence herbicidal rating GLXMAW: 1.0
[9]; rate 0.0625 kg/ha
  Preemergence herbicidal rating GLXMAW: 0.0
[9]; rate 0.1250 kg/ha
  Preemergence herbicidal rating GLXMAW: 0.0
[9]; rate 0.2500 kg/ha
  Preemergence herbicidal rating GLXMAW: 1.0
[10]; rate 0.0156 kg/ha
  Preemergence herbicidal rating AMBEL: 0.0
[10]; rate 0.0313 kg/ha
  Preemergence herbicidal rating AMBEL: 1.0
[10]; rate 0.0625 kg/ha
  Preemergence herbicidal rating AMBEL: 0.0
[10]; rate 0.1250 kg/ha
  Preemergence herbicidal rating AMBEL: 3.0
[10]; rate 0.2500 kg/ha
  Preemergence herbicidal rating AMBEL: 4.0
[11]; rate 0.0156 kg/ha
  herbicidal rating CASOB: 4.0
[11]; rate 0.0313 kg/ha
  herbicidal rating CASOB: 5.0
[11]; rate 0.0625 kg/ha
  herbicidal rating CASOB: 9.0
